Measured values published in US9701676B2, “Pro-neurogenic compounds” (Board of Regents of The University of Texas System, priority 2012, dated 2017).

Test system: proliferating neural precursor cells in the hippocampus (subgranular layer of the dentate gyrus)
Assay: standard in vivo hippocampal neurogenesis assay (BrdU labelling, week-long intracranial mini-pump infusion)
Design: species or system mouse (C57/B6)
Details: 10 μM concentration, seven days of infusion at 0.5 μL/hour, daily IP BrdU; four 12 week old adult male C57/B6 mice; vehicle 14.5
Procedure: Compounds were administered at a concentration of 10 μM for each molecule. After seven days of infusion at a constant rate of 0.5 μL/hour, a total of 84 μL of volume will have left the pump (0.00084 μMoles) and entered the cerebrospinal fluid. The average volume of a brain from a 12 week old male, C57/B6 mouse in the study is 500 mm^3. […] Under these conditions, at the end of one week of infusion each compound would be present at 1.7 μMolar concentration. Since the actual amount of chemical compound in the brain is likely to be only a fraction of this predicted level, it is reasonable to estimate that compounds were administered at mid to low-nanomolar concentrations.
During compound infusion, animals were intraperitoneally (IP) injected daily with the thymidine analog, bromodeoxyuridine (BrdU), as a means of scoring the birth and survival of proliferating neural precursor cells in the hippocampus. Because both social interaction and voluntary exercise are known to stimulate hippocampal neurogenesis, mice were housed individually without access to running wheels throughout the screening period. Following the week-long period of compound administration, animals were perfused and sacrificed. Dissected brain tissue was fixed, embedded, sectioned, stained with antibodies to BrdU, and evaluated by light microcopy as a means of quantifying neurogenesis and survival of newborn neural precursor cells localized to the subgranular layer of the dentate gyms on the brain hemisphere contralateral to the side of mini-pump cannulation. Every fifth section throughout the entire rostral-caudal extent of the hippocampus was analyzed, and the total number of BrdU+ cells was normalized against the measured volume of the dentate gyms.
Intracranial infusions of either fibroblast growth factor 2 (FGF-2) or artificial cerebral spinal fluid (aCSF) vehicle via the same, week-long protocol were employed as positive and negative controls.
Compounds were evaluated for pro-neurogenic efficacy/neuroprotection in a standard in vivo hippocampal neurogenesis assay at 10 μM concentration in four 12 week old adult male C57/B16 mice.

Row | Compound | (×10^−06) BrdU+ cells/mm^3 dentate gyrus
1 | CN(C)c1nc(O)c2[nH]c3ccc(Br)cc3c2n1 [P7C3-S270, 8-bromo-2-(dimethylamino)-5H-pyrimido[5,4-b]indol-4-ol] | 28 (×10^−06) BrdU+ cells/mm^3
2 | COc1nc(N(C)C)nc2c3cc(Br)ccc3n(C)c12 [P7C3-S275, 8-bromo-4-methoxy-N,N,5-trimethyl-5H-pyrimido[5,4-b]indol-2-amine] | 20.5 (×10^−06) BrdU+ cells/mm^3
3 | COc1ccc2[nH]c(C#N)c(N)c2c1 [P7C3-S276, 3-amino-5-methoxy-1H-indole-2-carbonitrile] | 29.3 (×10^−06) BrdU+ cells/mm^3
4 | O=C(NCC(O)Cn1c2ccc(Br)cc2c2cc(Br)ccc21)Nc1ccccc1 (stereo not drawn) [P7C3-S277, 1-(3-(3,6-dibromo-9H-carbazol-9-yl)-2-hydroxypropyl)-3-phenylurea] | 20.3 (×10^−06) BrdU+ cells/mm^3
5 | Cc1ccc2c(c1)c1cc(Br)ccc1n2C [P7C3-S280, 3-bromo-6,9-dimethyl-9H-carbazole] | 25.1 (×10^−06) BrdU+ cells/mm^3
6 | FGF-2: fibroblast growth factor 2, intracranial infusion employed as positive control | 28.4 (×10^−06) BrdU+ cells/mm^3
